How the values were obtained:
ACLY [1] = molecular target: T1, ACLY (Homo sapiens (Human), UniProt P53396); test: InCell Pulse assay (permeate HEK293 cells, bind to and stabilize ACLY); format: cell-based; conditions: HEK293 cells transfected with pICP-ACLY(FL)-ePL; 1 hour at 37° C., 55° C. heat pulse 10 minutes; read-out: InCell Pulse IC50 GMean
Summary of the method: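 HEK293 cells transiently expressing full-length ACLY-ePL were exposed in OptiMEM to 11-point, 3-fold compound dilutions for 1 h at 37 °C, heat-pulsed 10 min at 55 °C, then lysed for enzyme-fragment complementation luminescence. Four-parameter fit, normalised to 0.5% DMSO and 1 μM NDI-094311.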

ACLY [2] = molecular target: T1, ACLY; test: Human ACLY (hACLY) RF/MS activity assay; format: biochemical; conditions: 1 nM hACLY; 30 min pre-incubation; 15 μM Coenzyme A, 50 μM ATP, 50 μM citrate; CoA to Acetyl-CoA by RF/MS; read-out: RFMS IC50 GMean
Summary of the method: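 RapidFire MS read CoA-to-acetyl-CoA conversion as a substrate/product ratio after 30 min at RT (20° C) with final 15 μM CoA, 50 μM ATP, 50 μM citrate. Before substrate addition, 1 nM enzyme sat 30 min with compound (top 10 μM, two-fold dilutions; 1% DMSO) in pH 8.0 Hepes/MgCl2/NaCl/DTT buffer.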

[3] = molecular target: Recombinant human ACLY full length protein (Homo sapiens (Human), UniProt P53396); test: hACLY ADP-Glo activity assay; format: biochemical; conditions: 0.5 nM ACLY; 15 μM sodium citrate, 1 μM coenzyme A, 80 μM ATP; ADP formed, luminescence; read-out: ADP-Glo IC50 GMean
Protocol: Compounds of the disclosure were evaluated for their efficacy in inhibiting hACLY using an ADP-Glo™ assays that measure ADP formed from the enzymatic activity of hACLY.
Test compounds were 3-fold serially diluted in DMSO over 11-point concentration range and dispensed onto a 384-well plate. Recombinant human ACLY full length protein was purified. Concentrations of ACLY protein, sodium citrate, coenzyme A, and ATP in the reaction were optimized for standardized homogenous enzyme assay using ADP-Glo™ Kinase (Promega Inc.). The assay measured ADP formed from the enzymatic reaction.
The reaction buffer consisted of the assay buffer (50 mM HEPES pH 8.0, 10 mM MgCl2, 4 mM 1,4-Dithiothreitol, 0.01% Brij® 35).
ACLY protein (0.5 nM) was added to the prepared reaction buffer, and the mixture was dispensed into the assay plate and incubated for 30 minutes at room temperature. Next, 15 μM sodium citrate, 1 μM coenzyme A, and 80 μM ATP were added into the assay plate and incubated for 60 minutes at room temperature. The final reaction volume for each well was 5 μL.
5 μL of ADP-Glo™ reagent was added, and the mixture was incubated for 40 minutes at room temperature. 10 μl ADP-Glo™ detection reagent was added, and the mixture was incubated for 30 minutes at room temperature. Luminescence was determined using EnVision microplate reader with ultra-luminescence module (Perkin Elmer Inc). Concentration-response curve-fitting and IC50 determination was performed using Xlfit Software (version 5.5.0) with a four-parameter logistic regression fit model.

Recombinant human ACLY full length protein, sequence (P53396 whole entry): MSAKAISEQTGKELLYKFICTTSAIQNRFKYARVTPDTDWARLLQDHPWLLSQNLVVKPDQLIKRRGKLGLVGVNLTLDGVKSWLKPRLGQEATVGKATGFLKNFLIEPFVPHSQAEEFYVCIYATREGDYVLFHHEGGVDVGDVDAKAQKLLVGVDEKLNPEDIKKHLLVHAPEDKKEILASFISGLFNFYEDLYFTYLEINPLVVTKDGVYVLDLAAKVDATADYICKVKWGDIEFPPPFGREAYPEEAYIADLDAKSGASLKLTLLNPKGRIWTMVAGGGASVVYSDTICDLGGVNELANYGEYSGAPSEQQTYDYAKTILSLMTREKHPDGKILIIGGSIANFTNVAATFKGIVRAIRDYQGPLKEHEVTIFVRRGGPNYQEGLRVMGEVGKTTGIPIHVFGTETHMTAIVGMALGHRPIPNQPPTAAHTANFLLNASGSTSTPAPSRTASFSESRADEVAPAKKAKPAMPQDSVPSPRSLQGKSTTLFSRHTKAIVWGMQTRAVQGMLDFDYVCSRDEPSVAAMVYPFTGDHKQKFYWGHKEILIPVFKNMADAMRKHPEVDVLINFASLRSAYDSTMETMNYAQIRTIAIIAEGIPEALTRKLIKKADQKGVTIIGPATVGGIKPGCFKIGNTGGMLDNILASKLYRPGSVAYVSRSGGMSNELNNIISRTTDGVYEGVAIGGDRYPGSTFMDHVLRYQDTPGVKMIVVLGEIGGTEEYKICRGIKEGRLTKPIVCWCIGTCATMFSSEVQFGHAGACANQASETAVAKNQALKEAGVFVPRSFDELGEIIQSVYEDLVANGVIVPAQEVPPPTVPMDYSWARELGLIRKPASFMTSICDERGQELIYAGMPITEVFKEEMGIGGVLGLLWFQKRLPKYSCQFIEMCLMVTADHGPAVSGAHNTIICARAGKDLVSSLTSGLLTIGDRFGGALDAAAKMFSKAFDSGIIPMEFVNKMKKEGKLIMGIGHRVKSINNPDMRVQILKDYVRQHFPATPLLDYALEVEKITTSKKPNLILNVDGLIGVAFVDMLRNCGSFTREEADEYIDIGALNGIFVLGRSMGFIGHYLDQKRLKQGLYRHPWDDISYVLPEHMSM
T1 sequence (P53396 whole entry, the tested form may be a part): as the sequence (P53396 whole entry) above

Row | IC50 (ACLY [1]) [nM] | IC50 (ACLY [2]) [nM] | IC50 [3] [nM] | SMILES
1 | ≥ 50000 | 100 to 10000 | 10 to 1000 | O=C1NCCOc2cccc(c2)-c2cc(c(F)cc2F)NS(=O)(=O)c2cc1cc(Cl)c2O [Compound 3, 11-chloro-3,5-difluoro-10-hydroxy-18-oxa-8lambda6-thia-7,15-diazatetracyclo[17.3.1.1^2,6.1^9,13]pentacosa-1(22),2(25),3,5,9(24),10,12,19(23),20-nonaene-8,8,14-trione]
2 | ≥ 50000 | 100 to 10000 | 10 to 1000 | O=C1NCCCOc2cccc(c2)-c2cc(c(F)cc2F)NS(=O)(=O)c2cc1cc(Cl)c2O [Compound 5, 11-chloro-3,5-difluoro-10-hydroxy-19-oxa-8lambda6-thia-7,15-diazatetracyclo[18.3.1.1^2,6.1^9,13]hexacosa-1(23),2(26),3,5,9(25),10,12,20(24),21-nonaene-8,8,14-trione]
3 | ≥ 50000 | 100 to 10000 | 10 to 1000 | C[C@@H]1COc2ccccc2-c2cc(c(F)cc2F)NS(=O)(=O)c2cc(cc(Cl)c2O)C(=O)N1 [Compound 19, (10R)-15-chloro-21,23-difluoro-16-hydroxy-10-methyl-8-oxa-18lambda6-thia-11,19-diazatetracyclo[18.3.1.1^13,17.0^2,7]pentacosa-1(24),2,4,6,13,15,17(25),20,22-nonaene-12,18,18-trione]
4 | 1000 to 50000 | 20 to 100 | – | O=C1OCC2CN(C2)c2ccccc2-c2cc(c(F)cc2F)NS(=O)(=O)c2cc1cc(Cl)c2O [Compound 76, 16-chloro-22,24-difluoro-17-hydroxy-19,19-dioxo-12-oxa-19λ6-thia-8,20-diazapentacyclo[19.3.1.18,10.114,18.02,7]heptacosa-1(25),2,4,6,14,16,18(26),21,23-nonaen-13-one]
5 | 1000 to 50000 | < 20 | – | O=S1(=O)Nc2cc(c(F)cc2F)-c2ccccc2OCCn2cnnc2-c2cc(Cl)c(O)c1c2 [Compound 77, 25-chloro-17,19-difluoro-22,22-dioxo-9-oxa-2λ6-thia-3,4,6,21-tetrazapentacyclo[21.3.1.116,20.02,6.010,15]octacosa-1(26),2,4,10,12,14,16(28),17,19,23(27),24-undecaen-24-ol]
6 | < 300 | < 20 | – | O=C1OCc2ccccc2-c2cc(c(F)cc2F)NS(=O)(=O)c2cc1cc(Cl)c2O [Compound 78, 13-Chloro-19,21-difluoro-14-hydroxy-16,16-dioxo-9-oxa-16λ6-thia-17-azatetracyclo[16.3.1.111,15.02,7]tricosa-1(21),2(7),3,5,11(23),12,14,18(22),19-nonaen-10-one]
7 | < 300 | < 20 | – | O=C1OCCOc2ccc(F)cc2-c2cc(F)c(F)c(c2)NS(=O)(=O)c2cc1cc(Cl)c2O [Compound 79, 15-chloro-4,21,22-trifluoro-16-hydroxy-18,18-dioxo-8,11-dioxa-18λ6-thia-19-azatetracyclo[18.3.1.113,17.02,7]pentacosa-1(23),2(7),3,5,13,15,17(25),20(24),21-nonaen-12-one]
8 | < 300 | < 20 | – | O=C1OCCc2ccccc2-c2cc(F)c(F)c(c2)NS(=O)(=O)c2cc1cc(Cl)c2O [Compound 80, 14-chloro-20,21-difluoro-15-hydroxy-17,17-dioxo-10-oxa-17λ6-thia-18-azatetracyclo[17.3.1.112,16.02,7]tetracosa-1(23),2,4,6,12,14,16(24),19,21-nonaen-11-one]
9 | < 300 | < 20 | – | O=C1OCc2ccc(F)cc2-c2cc(c(F)cc2F)NS(=O)(=O)c2cc1cc(Cl)c2O [Compound 81, 13-chloro-4,19,21-trifluoro-14-hydroxy-16,16-dioxo-9-oxa-16λ6-thia-17-azatetracyclo[16.3.1.111,15.02,7]tricosa-1(21),2,4,6,11(23),12,14,18(22),19-nonaen-10-one]
10 | < 300 | < 20 | – | O=C1OCc2ccccc2-c2cc(F)c(F)c(c2)NS(=O)(=O)c2cc1cc(Cl)c2O [Compound 82, 13-chloro-19,20-difluoro-14-hydroxy-16,16-dioxo-9-oxa-16λ6-thia-17-azatetracyclo[16.3.1.111,15.02,7]tricosa-1(21),2,4,6,11(23),12,14,18(22),19-nonaen-10-one]
11 | < 300 | < 20 | – | O=C1OCc2ccc(F)cc2-c2cc(F)c(F)c(c2)NS(=O)(=O)c2cc1cc(Cl)c2O [Compound 83, 13-chloro-4,19,20-trifluoro-14-hydroxy-16,16-dioxo-9-oxa-16λ6-thia-17-azatetracyclo[16.3.1.111,15.02,7]tricosa-1(21),2,4,6,11,13,15(23),18(22),19-nonaen-10-one]
12 | < 300 | 100 to 10000 | – | O=C1OCc2ccccc2-c2ccc(F)c(c2)NS(=O)(=O)c2cc1cc(Cl)c2O [Compound 84, 13-chloro-19-fluoro-14-hydroxy-16,16-dioxo-9-oxa-16λ6-thia-17-azatetracyclo[16.3.1.111,15.02,7]tricosa-1(21),2(7),3,5,11(23),12,14,18(22),19-nonaen-10-one]
13 | ≥ 50000 | < 20 | – | N#Cc1ccc2c(c1)COC(=O)c1cc(Cl)c(O)c(c1)S(=O)(=O)Nc1cc-2c(F)cc1F [Compound 85, 13-chloro-19,21-difluoro-14-hydroxy-10,16,16-trioxo-9-oxa-16λ6-thia-17-azatetracyclo[16.3.1.111,15.02,7]tricosa-1(21),2(7),3,5,11,13,15(23),18(22),19-nonaene-5-carbonitrile]
14 | 300 to 1000 | 100 to 10000 | – | N#Cc1ccc2c(c1)-c1cc(c(F)cc1F)NS(=O)(=O)c1cc(cc(Cl)c1O)C(=O)OC2 [Compound 86, 13-chloro-19,21-difluoro-14-hydroxy-10,16,16-trioxo-9-oxa-16λ6-thia-17-azatetracyclo[16.3.1.111,15.02,7]tricosa-1(21),2,4,6,11(23),12,14,18(22),19-nonaene-4-carbonitrile]
15 | ≥ 50000 | 20 to 100 | – | O=C1OCc2cccnc2-c2cc(c(F)cc2F)NS(=O)(=O)c2cc1cc(Cl)c2O [Compound 87, 13-chloro-19,21-difluoro-14-hydroxy-16,16-dioxo-9-oxa-16λ6-thia-3,17-diazatetracyclo[16.3.1.111,15.02,7]tricosa-1(21),2(7),3,5,11,13,15(23),18(22),19-nonaen-10-one]
16 | ≥ 50000 | 100 to 10000 | – | O=C1OCc2ncccc2-c2cc(c(F)cc2F)NS(=O)(=O)c2cc1cc(Cl)c2O [Compound 88, 13-chloro-19,21-difluoro-14-hydroxy-16,16-dioxo-9-oxa-16λ6-thia-6,17-diazatetracyclo[16.3.1.111,15.02,7]tricosa-1(21),2(7),3,5,11,13,15(23),18(22),19-nonaen-10-one]
17 | ≥ 50000 | 100 to 10000 | – | O=C1c2cc(Cl)c(O)c(c2)S(=O)(=O)Nc2cc(c(F)cc2F)-c2cccc3c2CN1C3 [Compound 89, 13-chloro-19,21-difluoro-14-hydroxy-16,16-dioxo-16λ6-thia-9,17-diazapentacyclo[16.3.1.16,9.111,15.02,7]tetracosa-1(21),2(7),3,5,11,13,15(23),18(22),19-nonaen-10-one]
18 | ≥ 50000 | 100 to 10000 | – | O=C1NCc2ncccc2-c2cc(c(F)cc2F)NS(=O)(=O)c2cc1cc(Cl)c2O [Compound 90, 13-chloro-19,21-difluoro-14-hydroxy-16,16-dioxo-16λ6-thia-6,9,17-triazatetracyclo[16.3.1.111,15.02,7]tricosa-1(22),2,4,6,11,13,15(23),18,20-nonaen-10-one]
19 | ≥ 50000 | 100 to 10000 | – | CN1Cc2ccccc2-c2cc(c(F)cc2F)NS(=O)(=O)c2cc(cc(Cl)c2O)C1=O [Compound 91, 13-chloro-19,21-difluoro-14-hydroxy-9-methyl-16,16-dioxo-16λ6-thia-9,17-diazatetracyclo[16.3.1.111,15.02,7]tricosa-1(22),2,4,6,11(23),12,14,18,20-nonaen-10-one]
20 | 1000 to 50000 | 100 to 10000 | – | O=S1(=O)Nc2cc(ccc2F)-c2ccccc2CCCOCc2cc(Cl)c(O)c1c2 [Compound 92, 15-chloro-21-fluoro-18,18-dioxo-11-oxa-18λ6-thia-19-azatetracyclo[18.3.1.113,17.02,7]pentacosa-1(24),2,4,6,13,15,17(25),20,22-nonaen-16-ol]

Reference: patent US20250289793A1, “MACROCYCLIC INHIBITORS OF ATP CITRATE LYASE” (Esperion Therapeutics, Inc., priority 2022, published 2025)
